# Read-outs that look alike come from different tables or passages of the source.
# What was measured:
# [1] = target: T1, recombinant mouse sEH (Mus musculus, UniProt P34914); assay: Potency on recombinant mouse sEH, fluorescent substrate; assay type: biochemical
# T1 construct: made in house
# T1 sequence (P34914 1-554): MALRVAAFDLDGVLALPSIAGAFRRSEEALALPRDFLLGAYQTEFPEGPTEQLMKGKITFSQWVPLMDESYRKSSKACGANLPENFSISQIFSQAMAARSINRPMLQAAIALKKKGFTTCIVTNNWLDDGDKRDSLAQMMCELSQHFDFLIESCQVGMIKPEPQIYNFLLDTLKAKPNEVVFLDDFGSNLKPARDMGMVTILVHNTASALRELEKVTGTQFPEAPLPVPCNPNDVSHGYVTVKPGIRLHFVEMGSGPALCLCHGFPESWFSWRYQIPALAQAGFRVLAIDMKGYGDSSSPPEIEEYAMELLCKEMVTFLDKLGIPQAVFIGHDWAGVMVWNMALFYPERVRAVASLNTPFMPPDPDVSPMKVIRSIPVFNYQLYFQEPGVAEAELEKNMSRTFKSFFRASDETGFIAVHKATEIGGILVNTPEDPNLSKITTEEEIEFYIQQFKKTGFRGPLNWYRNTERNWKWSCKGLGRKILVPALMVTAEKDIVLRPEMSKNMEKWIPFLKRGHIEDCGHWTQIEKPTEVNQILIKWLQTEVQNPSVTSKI
# [2] = target: T2, recombinant rat sEH (Rattus norvegicus, UniProt P80299); assay: Potency on recombinant rat sEH, fluorescent substrate; assay type: biochemical
# T2 construct: made in house
# T2 sequence (P80299 1-554): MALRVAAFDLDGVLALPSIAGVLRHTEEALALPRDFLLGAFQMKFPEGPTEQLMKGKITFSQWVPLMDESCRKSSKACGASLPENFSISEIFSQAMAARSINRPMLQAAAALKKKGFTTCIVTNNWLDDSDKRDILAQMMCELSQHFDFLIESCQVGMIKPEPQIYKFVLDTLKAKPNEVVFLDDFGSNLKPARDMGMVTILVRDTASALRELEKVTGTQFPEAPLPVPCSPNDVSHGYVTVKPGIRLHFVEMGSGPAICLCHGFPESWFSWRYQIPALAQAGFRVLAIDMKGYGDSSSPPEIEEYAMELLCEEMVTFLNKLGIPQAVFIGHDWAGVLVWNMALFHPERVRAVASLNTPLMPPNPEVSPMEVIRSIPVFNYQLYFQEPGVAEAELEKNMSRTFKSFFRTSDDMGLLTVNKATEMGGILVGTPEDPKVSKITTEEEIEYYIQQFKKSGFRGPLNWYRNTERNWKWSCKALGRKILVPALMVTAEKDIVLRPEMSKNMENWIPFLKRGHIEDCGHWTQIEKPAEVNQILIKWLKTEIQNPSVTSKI
# [3] = test system: endogenous oxylipin sEH substrates and products in rat plasma; assay: Oxylipin analysis in rat plasma after sEHI / PDE inhibitor administration (LC-ESI-MS/MS); assay type: in vivo; details: rat plasma 60 min after s.c., TPAU 10 mg/kg, rolipram 1 mg/kg;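 also: plasma from tail vein blood, oxylipins quantified by LC-ESI-MS/MS against deuterated internal standards following solid-phase extraction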
# [4] = test system: Sprague-Dawley rats; assay: Acute nociceptive responses in healthy rats, Hargreaves thermal withdrawal latency; assay type: in vivo, rat; details: healthy rats
# [5] = test system: Sprague-Dawley rats; assay: Open field activity; assay type: in vivo, rat; details: 1 h following administration
# Description: For the measurement of open field activity animals were placed in an acrylic chamber (40×40×20 cm length×width×height) divided into 100 cm^2 (10×10 cm) sections. The number of crossings were recorded when both hind paws crossed into a neighboring cell.
smiles,measurement,setting,value
COc1ccc(C2CNC(=O)C2)cc1OC1CCCC1 (stereo not shown) [Rolipram],IC50,[1],> 10 µM
same,inhibitory activity in the sEH assay,"[2]; 10 and 100 μM, recombinant rat enzyme",No inhibition was observed
same,IC50,[2]; read-out: IC50 on recombinant rat sEH,> 100 µM
same,IC50,"[2]; recombinant sEH, read-out: IC50 Rat",> 10 µM
same,8(9)-EpETE,[3],1.25 nM
same,8(9)-EpETrE,[3],9.63 nM
same,"8,9-DiHETE",[3],0.07 nM
same,"8,9-DiHETrE",[3],0.45 nM
same,9(10)-EpOME,[3],55.27 nM
same,"9,10-DiHOME",[3],24.32 nM
same,10(11)-EpDPE,[3],7.51 nM
same,"10,11-DiHDPE",[3],0.33 nM
same,11(12)-EpETE,[3],0.93 nM
same,11(12)-EpETrE,[3],13.15 nM
same,"11,12-DiHETE",[3],0.20 nM
same,"11,12-DiHETrE",[3],1.67 nM
same,12(13)-EpOME,[3],36.32 nM
same,"12,13-DiHOME",[3],42.01 nM
same,13(14)-EpDPE,[3],3.88 nM
same,"13,14-DiHDPE",[3],0.37 nM
same,14(15)-EpETE,[3],0.84 nM
same,14(15)-EpETrE,[3],8.52 nM
same,"14,15-DiHETE",[3],0.28 nM
same,"14,15-DiHETrE",[3],1.74 nM
same,16(17)-EpDPE,[3],3.93 nM
same,"16,17-DiHDPE",[3],0.72 nM
same,17(18)-EpETE,[3],1.76 nM
same,"17,18-DiHETE",[3],0.77 nM
same,19(20)-EpDPE,[3],7.46 nM
same,"19,20-DiHDPE",[3],2.13 nM
same,total Dihydroxyeicosanoid,[3],75.1 nM
same,total Epoxyeicosanoid,[3],150.4 nM
same,12(13)-EpOME,[3]; listed as rolipram,no increase
same,"12,13-DiHOME",[3]; listed as rolipram,significant elevation
same,thermal withdrawal latency,[4]; 2 and 4 h after treatments,devoid of effect on withdrawal latency
same,"thermal withdrawal latency / pain related behavior, change from predrug baseline","[4]; s.c., about 1 h after administration",effective in elevating pain thresholds
same,voluntary movement in an open-field chamber (motor depressant effect),[5],significant and dose-dependent decrease in voluntary movement
